Measured values as given in US20260053811A1, “METHODS OF TREATING HYPERTENSION IN OBESE SUBJECTS” (Mineralys Therapeutics, Inc., priority 2022, published 2026).

Tested on: hypertensive subjects
Assay: Seated automated office blood pressure (AOBP) in randomized, placebo-controlled, dose-ranging study
Assay type: in vivo, human
Experimental: A randomized, double-blinded, placebo-controlled, dose-ranging, multicenter study was conducted to evaluate the effect of orally administered Compound A HBr on blood pressure for the treatment of hypertension in male and female subjects ≥18 years of age.
The study consists of two parts. For enrollment into Part 1 of the study, a subject's value of plasma renin activity (PRA) must be ≤1 ng/mL/h based on morning measurement. If the value of PRA >1 ng/mL/h based on morning measurement, then subjects may be eligible to enter Part 2 of the study.
For Part 1, 163 enrolled subjects ≥18 years of age were randomized into 6 equal treatment groups (1:1:1:1:1:1) to 12.5 mg BID, 25 mg BID, 12.5 mg QD, 50 mg QD, 100 mg QD, or placebo. After a review of interim clinical data, the 2 lowest dose levels (12.5 mg QD and 12.5 mg BID) were stopped for future randomization due to a lack of consistent meaningful reduction of blood pressure, but the patients randomized to that point remained in the study through completion. Thus, after the review of interim clinical data, subjects were randomized into 4 equal treatment groups (1:1:1:1) to 25 mg BID, 50 mg QD, 100 mg QD, or placebo.
For Part 2, 36 enrolled subjects ≥18 years of age were randomized (5:1) to either 100 mg QD Compound A HBr or placebo such that the Compound A HBr treatment group consisted of approximately 30 subjects and the placebo treatment group will consist of approximately 6 subjects.
Subjects orally administered the assigned study drug (Compound A HBr or placebo) according to the assigned dosing regimen for 8 weeks beginning on Study Day 1. All subjects in Part 1 (regardless of dosing group) received BID dosing to preserve the integrity of the blind; active drug is administered as the morning dose for all QD dose groups. Subjects returned to the research facility or were seen by the clinical investigator or approved home health care professional at the end of Study Weeks 1, 2, 3, 4, 5, 6, 7, and 8 (±2 days) for protocol-defined efficacy and safety assessments and procedures, assessment of adverse events (AEs), and confirmation of compliance with study drug usage. Subjects also completed a telephone visit and blood pressure (BP) check at home approximately 3 days post last dose of study drug. Subjects attended up to 14 full clinic visits, including a pre-Screening visit, a Screening/start of Placebo Run-in visit, a second visit during Placebo Run-in, a clinic visit to initiate the ABPM procedure, a Randomization visit, 8 weekly visits during double-blind treatment, and an end-of-study visit scheduled 4 weeks after the last study treatment for final efficacy and safety assessments.
An automated oscillometric sphygmomanometer device was used to measure the subjects' systolic and diastolic blood pressure in office after approximately 5 minutes of rest in the seated position.
The primary endpoint is the change in office-measured (mean of last 2 of 5 unattended measurements using an automated oscillometric sphygmomanometer device after approximately 5 minutes of rest in the seated position) systolic blood pressure (SBP) from baseline to the end of Study Week 8.
Secondary endpoints of this study were: • (a) Change in 24-hour ambulatory blood pressure monitoring (ABPM) parameters (systolic and diastolic) from baseline to the end of Study Week 7. • (b) Change in office-measured SBP from baseline to the end of Study Weeks 1, 2, 3, 4, 5, 6, and 7. • (c) Change in office-measured diastolic blood pressure (DBP) from baseline to the end of Study Weeks 1, 2, 3, 4, 5, 6, 7, and 8. • (d) Proportion of subjects who achieve office-measured BP of ≤130/80 mm Hg by the end of Study Week 8.

[1] = Part 2, 100 mg QD, Thiazide Diuretic Use at Baseline Yes
[2] = Part 2, 100 mg QD, subgroup ACEi/ARBs No (n 1)
[3] = Part 2, 100 mg QD, subgroup ACEi/ARBs Yes
[4] = Part 2, 100 mg QD, subgroup AHTs 2
[5] = Part 2, 100 mg QD, subgroup AHTs ≥3
[6] = Part 2, 100 mg QD, subgroup Age 65-79 yr
[7] = Part 2, 100 mg QD, subgroup Age <65 yr
[8] = Part 2, 100 mg QD, subgroup Age ≥80 yr (n 1)
[9] = Part 2, 100 mg QD, subgroup BMI 25-30 kg/m^2
[10] = Part 2, 100 mg QD, subgroup BMI <25 kg/m^2
[11] = Part 2, 100 mg QD, subgroup BMI >30 kg/m^2
[12] = Part 2, 100 mg QD, subgroup PRA 1-5 ng/mL/hr
[13] = Part 2, 100 mg QD, subgroup PRA >5 ng/mL/hr
[14] = Part 2, 100 mg QD, subgroup Race Black or AA
[15] = Part 2, 100 mg QD, subgroup Race Other
[16] = Part 2, 100 mg QD, subgroup Seated SBP Tertile High
[17] = Part 2, 100 mg QD, subgroup Seated SBP Tertile Low
[18] = Part 2, 100 mg QD, subgroup Seated SBP Tertile Middle
[19] = Part 2, 100 mg QD, subgroup Sex Female
[20] = Part 2, 100 mg QD, subgroup Sex Male
[21] = pooled 50 mg QD, 100 mg QD, 12.5 mg BID and 25 mg BID cohorts (N=103)
[22] = pooled 50 mg QD, 100 mg QD, 12.5 mg BID, 25 mg BID cohorts, week 8

CC(=O)N[C@H]1CC[C@H](NC(=O)CN2CCN(c3nncc(-c4ccc(C)cc4)n3)CC2)CC1 [Compound A HBr]
Mean Automated Office-Measured Systolic Blood Pressure at Wk 8 [1]: 131.72 mmHg | Mean Change from Baseline at Week 8 in Automated Office-Measured Systolic Blood Pressure [1]: −10.50 mmHg | Automated Office-Measured Diastolic Blood Pressure, Wk 8, mean [2]: 87.00 mmHg | Change from Baseline at Week 8 in Automated Office-Measured Diastolic Blood Pressure, mean [2]: 0.00 mmHg | Automated Office-Measured Diastolic Blood Pressure, Wk 8, mean [3]: 71.66 mmHg | Change from Baseline at Week 8 in Automated Office-Measured Diastolic Blood Pressure, mean [3]: −5.88 mmHg | Automated Office-Measured Diastolic Blood Pressure, Wk 8, mean [4]: 71.58 mmHg | Change from Baseline at Week 8 in Automated Office-Measured Diastolic Blood Pressure, mean [4]: −6.21 mmHg | Automated Office-Measured Diastolic Blood Pressure, Wk 8, mean [5]: 73.18 mmHg | Change from Baseline at Week 8 in Automated Office-Measured Diastolic Blood Pressure, mean [5]: −4.77 mmHg | Automated Office-Measured Diastolic Blood Pressure, Wk 8, mean [6]: 72.38 mmHg | Change from Baseline at Week 8 in Automated Office-Measured Diastolic Blood Pressure, mean [6]: −3.83 mmHg | Automated Office-Measured Diastolic Blood Pressure, Wk 8, mean [7]: 72.50 mmHg | Change from Baseline at Week 8 in Automated Office-Measured Diastolic Blood Pressure, mean [7]: −10.38 mmHg | Automated Office-Measured Diastolic Blood Pressure, Wk 8, mean [8]: 65.00 mmHg | Change from Baseline at Week 8 in Automated Office-Measured Diastolic Blood Pressure, mean [8]: −7.00 mmHg | Automated Office-Measured Diastolic Blood Pressure, Wk 8, mean [9]: 70.40 mmHg | Change from Baseline at Week 8 in Automated Office-Measured Diastolic Blood Pressure, mean [9]: −6.10 mmHg | Automated Office-Measured Diastolic Blood Pressure, Wk 8, mean [10]: 77.00 mmHg | Change from Baseline at Week 8 in Automated Office-Measured Diastolic Blood Pressure, mean [10]: −1.25 mmHg | Automated Office-Measured Diastolic Blood Pressure, Wk 8, mean [11]: 73.46 mmHg | Change from Baseline at Week 8 in Automated Office-Measured Diastolic Blood Pressure, mean [11]: −5.88 mmHg | Automated Office-Measured Diastolic Blood Pressure, Wk 8, mean [12]: 71.93 mmHg | Change from Baseline at Week 8 in Automated Office-Measured Diastolic Blood Pressure, mean [12]: −2.14 mmHg | Automated Office-Measured Diastolic Blood Pressure, Wk 8, mean [13]: 71.29 mmHg | Change from Baseline at Week 8 in Automated Office-Measured Diastolic Blood Pressure, mean [13]: −11.79 mmHg | Automated Office-Measured Diastolic Blood Pressure, Wk 8, mean [14]: 72.00 mmHg | Change from Baseline at Week 8 in Automated Office-Measured Diastolic Blood Pressure, mean [14]: −4.67 mmHg | Automated Office-Measured Diastolic Blood Pressure, Wk 8, mean [15]: 72.21 mmHg | Change from Baseline at Week 8 in Automated Office-Measured Diastolic Blood Pressure, mean [15]: −5.94 mmHg | Automated Office-Measured Diastolic Blood Pressure, Wk 8, mean [16]: 72.09 mmHg | Change from Baseline at Week 8 in Automated Office-Measured Diastolic Blood Pressure, mean [16]: −4.14 mmHg | Automated Office-Measured Diastolic Blood Pressure, Wk 8, mean [17]: 72.33 mmHg | Change from Baseline at Week 8 in Automated Office-Measured Diastolic Blood Pressure, mean [17]: −6.78 mmHg | Automated Office-Measured Diastolic Blood Pressure, Wk 8, mean [18]: 72.10 mmHg | Change from Baseline at Week 8 in Automated Office-Measured Diastolic Blood Pressure, mean [18]: −6.40 mmHg | Automated Office-Measured Diastolic Blood Pressure, Wk 8, mean [19]: 70.75 mmHg | Change from Baseline at Week 8 in Automated Office-Measured Diastolic Blood Pressure, mean [19]: −6.28 mmHg | Automated Office-Measured Diastolic Blood Pressure, Wk 8, mean [20]: 75.00 mmHg | Change from Baseline at Week 8 in Automated Office-Measured Diastolic Blood Pressure, mean [20]: −4.50 mmHg | Blood pressure reduction by background thiazide diuretic (across dosing cohorts): particularly effective at reducing the blood pressure of individuals who were receiving a thiazide diuretic | Blood pressure reduction by body mass index (BMI) (across dosing cohorts): particularly effective at reducing the blood pressure of individuals with a body mass index (BMI) of greater than 30 | Subjects with change in BPsys >−15 mmHg [21]: 41% | Subjects with change in BPsys >−25 mmHg [21]: 25% | Subjects achieving >−23 mmHg fall in systolic blood pressure [22]: 25% | Subjects achieving ≥15 mmHg fall in systolic blood pressure [22]: 41%
